# Reference: US11246866B2, “Solid pharmaceutical compositions for treating HCV” (AbbVie Inc., priority 2015, dated 2022)
# Experiment: Single-dose crossover bioavailability study of Compound 1/Compound 2 mini-tablets
# Assay type: in vivo, human
# Details: for t1/2: Compound 1, fasting, harmonic mean, N = 14; for effect of administration with food on bioavailability: co-formulated mini-tablets, solid dispersion form, with food vs fasting
# Procedure: In comparison, when administered with food, the mini-tablets provided an AUC that was only 5% lower than that provided by the regular tablets. […] All of the reference AUCs of the regular tablets were measured under fasting conditions. 14 subjects were enrolled in this study and dosed with co-formulated Compound 1/Compound 2 in mini-tablets. One subject spilled 4 mini-tablets (out of 100-150 total mini-tablets) during dosing of Period 2 (Regimen G) and was not excluded from the analysis. The mini-tablets were prepared according to a process similar to that described in Example 2. [table] [table]
t1/2 (Regimen F: mini-tablets 200 mg/120 mg),t1/2 (Regimen J: two 100 mg Compound 1 tablets and three 40 mg Compound 2 tablets),effect of administration with food on bioavailability,"AUC lower than that provided by regular tablets (mini-tablets containing 200 mg Compound 1, with food, vs two regular tablets under fasting conditions)","AUC lower than that provided by regular tablets (mini-tablets containing 200 mg Compound 1, without food, vs two regular tablets (same amount, same solid dispersion) under fasting conditions)","AUC higher than that provided by regular tablets (mini-tablets containing 120 mg Compound 2, with food, vs three regular tablets under fasting conditions)","AUC lower than that provided by regular tablets (mini-tablets containing 120 mg Compound 2, without food, vs three regular tablets under fasting conditions)",SMILES
5.61 h,5.93 h,significantly increase,5%,41%,–,–,CC(C)(C)[C@@H]1NC(=O)O[C@@H]2CCC[C@H]2OC/C=C/C(F)(F)c2nc3ccccc3nc2O[C@@H]2C[C@@H](C(=O)N[C@]3(C(=O)NS(=O)(=O)C4(C)CC4)C[C@H]3C(F)F)N(C2)C1=O [Compound 1]
–,–,significantly increase,–,–,6%,28%,COC(=O)N[C@H](C(=O)N1CCC[C@H]1c1nc2cc([C@H]3CC[C@H](c4cc5nc([C@@H]6CCCN6C(=O)[C@@H](NC(=O)OC)[C@@H](C)OC)[nH]c5cc4F)N3c3cc(F)c(N4CCC(c5ccc(F)cc5)CC4)c(F)c3)c(F)cc2[nH]1)[C@@H](C)OC [Compound 2]
